Literature values in patent US5143902A, “Glucagon analogs with ASP^9 replacements or deletions” (The Rockefeller University, priority 1991, dated 1992).

Columns and labels:
Details in all cases: background
glucagon receptor = tested on: glucagon receptor
[1] = tested on: another binding system in the hepatocyte membrane
adenylate cyclase = tested on: adenylate cyclase

Substance: Nα- trinitrophenyl [12-homoarginine] glucagon
- binding to the glucagon receptor (glucagon receptor): does bind to the glucagon receptor
- activation of another binding system producing inositol trisphosphate and calcium ions [1]: activates another binding system in the hepatocyte membrane leading to the production of inositol trisphosphate and calcium ions
- activation of adenylate cyclase (adenylate cyclase): without significant activation of adenylate cyclase
